These results are taken from patent US5091425A, “5-(heterocyclylalkanoyl)amino-4-hydroxypentanamides” (Imperial Chemical Industries plc, priority 1988, dated 1992).

This test deals with T1, partially purified human renin (Homo sapiens, UniProt P00797).
T1 sequence (P00797 67-406): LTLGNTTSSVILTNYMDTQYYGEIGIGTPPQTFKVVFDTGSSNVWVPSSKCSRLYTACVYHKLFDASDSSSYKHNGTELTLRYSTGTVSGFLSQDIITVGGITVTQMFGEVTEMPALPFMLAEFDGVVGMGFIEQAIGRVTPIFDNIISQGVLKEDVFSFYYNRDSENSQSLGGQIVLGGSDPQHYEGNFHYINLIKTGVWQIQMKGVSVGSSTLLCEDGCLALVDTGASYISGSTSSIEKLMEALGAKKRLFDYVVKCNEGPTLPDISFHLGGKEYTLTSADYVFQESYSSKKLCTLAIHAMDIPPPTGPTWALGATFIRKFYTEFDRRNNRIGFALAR
Nature of the test: in vitro inhibition of renin-catalysed angiotensin I generation (radioimmunoassay). It is filed as biochemical. The conditions noted are these: human renin with angiotensinogen; angiotensin I by radioimmunoassay; read-out: IC50 (concentration for 50% inhibition of the renin catalysed reaction). Here is the method: The inhibition of the catalytic activity of renin, and in particular of human renin, may be assessed in vitro using a routine laboratory procedure involving the incubation of a test compound initially at a concentration of 100 micromolar in a buffered mixture containing appropriate concentrations of partially purified human renin and the natural renin substrate angiotensinogen. The formation of the angiotensin known as angiotensin I (which is assayed by a standard radioimmunoassay using procedures well known in the art) is inhibited by those compounds which inhibit the action of renin and the degree of inhibition is readily determined by comparing the angiotensin I generation rate in the presence of the test compound (at the specified test concentration) with the control rate of angiotensin I generation in the absence of the test compound.
In this standard test procedure, compounds which show at least 30% inhibition are retested at lower concentrations to determine their inhibitory potency. For determination of the IC50 (concentration for 50% inhibition of the renin catalysed reaction), concentrations are ordinarily chosen to allow testing over at least four orders of magnitude centred about the predicted approximate IC50, which latter is subsequently determined from a plot of percentage inhibition against concentration of the test compound. […]

As to `CCCCNC(=O)[C@@H](C[C@H](O)[C@H](CC1CCCCC1)NC(=O)C(Cc1cccnc1)c1nnc2c(CCC)nc(-c3cccnc3)cn12)C(C)C` (mixture of isomers) [Example 6, (2S,4S,5S)-N-butyl-6-cyclohexyl-4-hydroxy-2-isopropyl-5-[(2RS)-2-(8-propyl-6-(3-pyridyl)-1,2,4-triazolo[4,3-a]pyrazin-3-yl)-3-(3-pyridyl)propionamido]hexanamide], the IC50 came to 0.2 nM.
